Here are results for two molecules from PMC9278983, “Biochemical and Structural Characterization of Thermostable GH159 Glycoside Hydrolases Exhibiting α-L-Arabinofuranosidase Activity” (Frontiers in Molecular Biosciences, 2022).

Format in all cases: biochemical
Test [1] addresses T1, Cs_Gaf159A (Caldicellulosiruptor saccharolyticus, UniProt A4XGP0).
T1 construct: gene Csac_0437; full-length (no signal peptide), C-terminal His6 tag, pET24c(+), E. coli BL21 Star, IMAC
Kind of test: product inhibition, pNPA hydrolysis. The following applies: read-out: % inhibition at 500 mM.

Another test deals with T2, Ck_Gaf159A (Caldicellulosiruptor kronotskyensis, UniProt E4SDK8).
T2 construct: gene Calkro_0290; full-length (no signal peptide), C-terminal His6 tag, pET24c(+), E. coli BL21 Star, IMAC
Nature of the test: product inhibition, pNPA hydrolysis. The following applies: read-out: % inhibition at 500 mM.

The target in test [2] is T3, Ch_Gaf159A (Caldicellulosiruptor hydrothermalis, UniProt E4QB49).
T3 construct: gene Calhy_0274; full-length (no signal peptide), C-terminal His6 tag, pET24c(+), E. coli BL21 Star, IMAC; monomer
Kind of test: product inhibition, pNPA hydrolysis. The following applies: read-out: % inhibition at 500 mM.

Test [3] addresses T3, Ch_Gaf159A. Nature of the test: pNP release, […] nm, Michaelis-Menten. The note with it: 82 °C, pH 6.5 MOPS, 10 mM CaCl2, 10 min; saturation not reached.
Test [4] concerns the target T1, Cs_Gaf159A. Nature of the test: pNP release, […] nm, Michaelis-Menten. The note with it: 90 °C, pH 6.5 MOPS, 10 mM CaCl2, 10 min; saturation not reached.

Some results are limits rather than exact numbers.

T3 sequence (E4QB49 entry or part of it): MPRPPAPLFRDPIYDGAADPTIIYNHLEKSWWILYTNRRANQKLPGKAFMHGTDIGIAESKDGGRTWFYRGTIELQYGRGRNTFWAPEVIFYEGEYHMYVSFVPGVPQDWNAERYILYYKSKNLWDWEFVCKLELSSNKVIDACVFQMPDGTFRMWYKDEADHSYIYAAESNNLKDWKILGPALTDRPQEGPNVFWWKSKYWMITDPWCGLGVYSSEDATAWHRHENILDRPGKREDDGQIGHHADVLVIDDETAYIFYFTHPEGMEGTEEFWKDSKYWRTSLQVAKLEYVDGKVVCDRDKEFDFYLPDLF
T1 sequence (A4XGP0 entry or part of it): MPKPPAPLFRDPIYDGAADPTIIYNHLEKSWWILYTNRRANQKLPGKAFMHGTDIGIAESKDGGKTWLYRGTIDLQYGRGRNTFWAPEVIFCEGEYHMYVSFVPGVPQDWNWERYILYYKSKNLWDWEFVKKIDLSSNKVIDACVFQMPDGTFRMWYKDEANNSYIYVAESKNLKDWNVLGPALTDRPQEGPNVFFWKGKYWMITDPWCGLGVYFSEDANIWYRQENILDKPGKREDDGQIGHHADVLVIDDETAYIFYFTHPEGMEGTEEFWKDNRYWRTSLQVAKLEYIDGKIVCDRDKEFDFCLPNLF
T2 sequence (E4SDK8 entry or part of it): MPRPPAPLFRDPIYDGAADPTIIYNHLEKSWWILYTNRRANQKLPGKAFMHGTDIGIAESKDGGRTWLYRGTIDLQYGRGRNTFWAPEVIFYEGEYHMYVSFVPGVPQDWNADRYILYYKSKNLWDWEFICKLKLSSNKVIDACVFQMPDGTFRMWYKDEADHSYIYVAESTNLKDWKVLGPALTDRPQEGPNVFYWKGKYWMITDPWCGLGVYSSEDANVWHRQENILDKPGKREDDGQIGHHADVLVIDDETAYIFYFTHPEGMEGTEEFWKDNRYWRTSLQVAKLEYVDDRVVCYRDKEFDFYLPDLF

What is called inhibition is the drop in the measured response relative to a control, in per cent. On to `OC1OC[C@H](O)[C@H](O)[C@H]1O` (some centres unmarked) [arabinose], for which the inhibition at 500000 µM on Cs_Gaf159A [1], at Ck_Gaf159A and on Ch_Gaf159A [2] was below 50% throughout.
For orientation: Km means the substrate concentration at which the rate is half of its maximum. As for `O=[N+]([O-])c1ccc(O[C@@H]2O[C@@H](CO)[C@H](O)[C@H]2O)cc1` [pNPA, pNP-α-L-arabinofuranoside], the Km at Ch_Gaf159A [3] and on Cs_Gaf159A [4] was above 10 mM each time.
